Measured values published in patent US20260184669A1, “LIPID COMPOUND AND COMPOSITION FOR DELIVERY OF ACTIVE SUBSTANCE” (KOREA RESEARCH INSTIUTE OF BIOSCIENCE AND BIOTECHNOLOGY, priority 2022, published 2026).

Legend:
female C57BL/6 mice = test: Protein expression efficiency of fLuc mRNA-LNPs after intramuscular injection (IVIS whole-body luminescence); assay type: in vivo; conditions: for Total flux 1 hour / Total flux 3 hours / Total flux 6 hours / Total flux 48 hours / Total flux 72 hours / Total flux: fLuc mRNA-LNP, intramuscular injection, luminescence at injection site, mice; for Total flux 1 hour: 1 hour after administration; for Total flux 3 hours: 3 hours after administration; for Total flux 6 hours: 6 hours after administration; for Total flux 48 hours: 48 hours after administration; for Total flux 72 hours: 72 hours after administration; for Total flux: after administration; for Fold increase in total flux at 3 h, MC3: relative to control LNP formulated with MC3; for Fold increase in total flux at 3 h, MC3 / Fold increase in total flux at 3 h, SM-102: 3 hours after intramuscular injection; for Fold increase in total flux at 3 h, SM-102: relative to control LNP formulated with SM-102
Description: fLuc mRNA-LNPs formulated using various ionizable lipids were prepared according to the method described in Example 27 and administered in vivo via intramuscular (I. M.) or intravenous (IV.) injection to compare the resulting protein expression efficiency in vivo. As a control, EGFP mRNA-LNPs formulated with commercially available ionizable lipids MC3 or SM-102 were used. All mRNA-LNPs were administered at equal mRNA doses per body weight across different concentration groups (n≥4).
Specifically, the dose of mRNA-LNPs was adjusted to 0.1-0.5 mg/kg of body weight, and the formulation was administered via I.M. or I.V. injection to female C57BL/6 mice (6-10 weeks old, Orient Bio, Korea) Subsequently, […], whole-body luminescence images were acquired using an in vivo imaging system (IVIS Lumina III, PerkinElmer, Walzam, MA, USA). To assess protein expression levels, 200 μL of D-luciferin (15 mg/mL) was administered via intraperitoneal (I.P.) injection 10 minutes prior to imaging. During image acquisition, the animals were anesthetized by inhalation of 3% isoflurane in 97% medical grade oxygen. In addition, the acquired luminescence images were quantitatively analyzed using imaging software (Living Image Software Version 4.4; PerkinElmer, USA).
After intramuscular injection of the fLuc mRNA-LNPs, the luminescence intensity at the injection site was measured over time.
Furthermore, the luminescence intensity at the injection site 3 hours after intramuscular injection was measured, and the relative protein expression efficiency was compared to that of control LNPs formulated with MC3 or SM-102.

[1] = tested on: IL-1β mRNA level in HEK-293T cells; conditions: human
[2] = mRNA encapsulation efficiency (Quant-IT RiboGreen RNA assay); assay type: physicochemical; conditions: mRNA encapsulation efficiency of mRNA-LNP made with the ionizable lipid; average of two measurements
Description: The mRNA encapsulation efficiency (EE, %) of LNPs containing mRNA was measured using the Quant-IT™ RiboGreen® RNA assay kit (Invitrogen, USA).
The diluted samples were added to each well of a 96-well plate. Group A (without Triton X-100) was supplemented with 50 μL of 1×TE buffer, while Group B (with Triton X-100) was supplemented with 50 μL of 1×TE buffer containing 2% Triton-X 100. To release the encapsulated mRNA, the LNPs were treated with Triton-X 100 and incubated at 37° C. for 10 minutes. Subsequently, 100 μL of ribogreen reagent was added to each well. The fluorescence intensities of Group A and Group B were measured using a multi-plate reader (λex 480 nm, λem 520 nm), and mRNA encapsulation efficiency (%) was calculated using Equation 1 below. The encapsulation efficiency for each LNP was determined as the average of two independent measurements.

[3] = tested on: IL-6 mRNA level in HEK-293T cells; conditions: human
[4] = tested on: CCL2 mRNA level in HEK-293T cells; conditions: human
[5] = Size, polydispersity index and surface charge of mRNA-LNP (Malvern Zetasizer Nano ZS90); assay type: physicochemical; conditions: for PDI / size (nm) Number: mRNA-LNP made with the ionizable lipid at its optimal formulation (Table 2); for size (nm) Number: diluted with PBS to 1 μg/mL mRNA; for Zeta (mV): surface charge of mRNA-LNP made with the ionizable lipid at its optimal formulation (Table 2)
Description: Each mRNA-LNPs produced in Example 27 was diluted with PBS to a final mRNA concentration of 1 μg/mL. The size, polydispersity index (PDI), and surface charge of the mRNA-LNPs were then measured using a Malvern Zetasizer Nano ZS90 (Malvern Instruments, UK).
For particles intended for systemic administration, such as via blood vessels, the particle size must be less than 200 nm in order to pass through the endothelial capillaries of the liver. In addition, the size distribution is considered uniform only when the PDI is 0.3 or less, which enables consistent and efficient therapeutic effects (Non-patent document 3 [Danaei, M. et al). Pharmaceutics 2018, 10, 57]).

[6] = In vivo toxicity evaluation, serum biochemical analysis (AST, ALT, ALP, BUN, creatinine); conditions: serum of mice after injection of fLuc mRNA-LNP, FIG. 9
Description: Toxicity induced by fLuc mRNA-LNPs prepared using various ionizable lipids according to the method of Example 27 was evaluated through serum biochemical analysis following […]. injection into mice.
Specifically, 50-100 μL of serum was collected each mouse at 24 and 48 hours after intravenous injection using the retro-orbital bleeding method. The serum biochemical analysis was performed using Hitachi 7150 Chemistry Analyzer, measuring indicators of liver function—aspartate aminotransferase (AST), alanine aminotransferase (ALT), alkaline phosphatase (ALP)- and indicators of kidney function—blood urea nitrogen (BUN) and creatinine.

[7] = tested on: CCL3 mRNA level in HEK-293T cells; conditions: human
[8] = Stability of mRNA-LNPs according to storage temperature and duration; assay type: physicochemical; conditions: for Normalized EE % D-1 / PDI D-1 / Size (nm) D-1: day 1; for Normalized EE % D-7 / PDI D-7 / Size (nm) D-7: day 7; for Normalized EE % D-30 / PDI D-30 / Size (nm) D-30: day 30
Description: Stability of fLuc mRNA-LNPs produced using various ionizable lipids according to the method of Example 27, was assessed by storing the LNPs at 4° C. and 25° C. At 1, 7, and 30 days post-manufacture, the size, PDI, and encapsulation efficiency (EE) of each mRNA-LNPs samples were measured using the methods described in Experimental Examples 2 and 3.

SMILES	Total flux 1 hour (female C57BL/6 mice)	Total flux 3 hours (female C57BL/6 mice)	Total flux 6 hours (female C57BL/6 mice)	Total flux 48 hours (female C57BL/6 mice)	Total flux 72 hours (female C57BL/6 mice)	Total flux (female C57BL/6 mice)	Fold increase in total flux at 3 h, MC3 (female C57BL/6 mice)	Fold increase in total flux at 3 h, SM-102 (female C57BL/6 mice)	IL-1β Average [1]	EE (%) [2] [%]	IL-6 Average [3]	CCL2 Average [4]	PDI [5]	size (nm) Number [5] [nm]	Zeta (mV) [5] [mV]	CCL3 Average [7]	Normalized EE % D-1 ([8]; fLuc mRNA-LNP stored at 4° C.) [%]	Size (nm) D-1 ([8]; fLuc mRNA-LNP stored at 4° C.) [nm]	Normalized EE % D-7 ([8]; fLuc mRNA-LNP stored at 4° C.) [%]	PDI D-7 ([8]; fLuc mRNA-LNP stored at 4° C.)	further results
CCCCCCCCCCCOC(=O)CCCCCN(CCCCCCCC(=O)OC(CCCCCCCC)CCCCCCCC)CC(O)CCCCNC(=O)c1cc[nH]c1 (stereo not shown) [Compound 17, Heptadecan-9-yl 8-((2-hydroxy-6-(1H-pyrrole-3-carboxamido)hexyl)(6-oxo-6-(undecyloxy)hexyl)amino)octanoate]	6.53E+07	2.23E+08	1.02E+08	4.80E+06	4.21E+06	1.00E+07	18.09	1.99	0.70	94	0.94	0.65	0.100	151	−6.80	1.10	94.0	151.2	91.3	0.098	protein expression compared to the control group (SM-102) (female C57BL/6 mice; 3 hours post intramuscular injection, in words): significantly higher protein expression; ALP level compared to control groups (PBS and SM-102) [6]: similar; AST level compared to control groups (PBS and SM-102) [6]: lower; BUN level compared to control groups (PBS and SM-102) [6]: similar; PDI D-1 ([8]; fLuc mRNA-LNP stored at 4° C.): 0.100; Size (nm) D-7 ([8]; fLuc mRNA-LNP stored at 4° C.): 133.8 nm; Normalized EE % D-30 ([8]; fLuc mRNA-LNP stored at 4° C.): 89.8%; PDI D-30 ([8]; fLuc mRNA-LNP stored at 4° C.): 0.081; Size (nm) D-30 ([8]; fLuc mRNA-LNP stored at 4° C.): 130.7 nm; Normalized EE % D-1 ([8]; fLuc mRNA-LNP stored at 25° C.): 94.0%; Size (nm) D-1 ([8]; fLuc mRNA-LNP stored at 25° C.): 151.2 nm; Normalized EE % D-7 ([8]; fLuc mRNA-LNP stored at 25° C.): 90.2%; PDI D-7 ([8]; fLuc mRNA-LNP stored at 25° C.): 0.114; Size (nm) D-7 ([8]; fLuc mRNA-LNP stored at 25° C.): 134.2 nm; Normalized EE % D-30 ([8]; fLuc mRNA-LNP stored at 25° C.): 88.6%; PDI D-30 ([8]; fLuc mRNA-LNP stored at 25° C.): 0.128; Size (nm) D-30 ([8]; fLuc mRNA-LNP stored at 25° C.): 128.1 nm
CCCCCCCCCCCOC(=O)CCCCCN(CCCCCCCC(=O)OC(CCCCCCCC)CCCCCCCC)CC(O)CCCCNC(=O)c1c(O)ccn1C (stereo not shown) [Compound 24, Heptadecan-9-yl 8-((2-hydroxy-6-(3-hydroxy-1-methyl-1H-pyrrole-2-carboxamido)hexyl)(6-oxo-6-(undecyloxy)hexyl)amino)octanoate]	6.70E+06	3.49E+07	4.45E+07	3.86E+06	3.66E+06	7.85E+06	2.82	0.31	0.99	90	0.87	0.96	0.114	137	−7.89	1.36	89.7	136.9	90.5	0.114	Size (nm) D-7 ([8]; fLuc mRNA-LNP stored at 4° C.): 123.7 nm; Normalized EE % D-1 ([8]; fLuc mRNA-LNP stored at 25° C.): 89.7%; PDI D-1 ([8]; fLuc mRNA-LNP stored at 25° C.): 0.114; Size (nm) D-1 ([8]; fLuc mRNA-LNP stored at 25° C.): 136.9 nm; Normalized EE % D-7 ([8]; fLuc mRNA-LNP stored at 25° C.): 89.6%; PDI D-7 ([8]; fLuc mRNA-LNP stored at 25° C.): 0.163; Size (nm) D-7 ([8]; fLuc mRNA-LNP stored at 25° C.): 113.5 nm
